This note sets out measurements from ChEMBL document CHEMBL1201862, “PubChem BioAssay data set” (2004).

Calls of active or inactive are those of the source. Bounds are passed on as bounds.

Test [1] relates to HEK293. Nature of the test: NOD1 signaling inhibitors, primary screen, cell-based, luminescence, uHTS (AID 1578). The format is functional. Conditions: Homo sapiens.
Test [2] relates to HEK293. Nature of the test: cells. Format: functional, cell-based. Conditions: Homo sapiens.
Test [3] addresses Nucleotide-binding oligomerization domain-containing protein 2 (Homo sapiens, UniProt Q9HC29). Nature of the test: NOD2 signaling inhibitors, cell-based, luminescence, uHTS, HEK293 (AID 1566). The format is functional.
Test [4] concerns HEK293. Kind of test: NOD2 signaling inhibitors in MDP-stimulated cells, cell-based, uHTS, luminescence (AID 2001). The settings on record: Homo sapiens. The format is functional.
For test [5], the system named is HEK293. Nature of the test: cells. Format: functional, cell-based. The settings on record: Homo sapiens. The source holds these as a separate data set.
In test [6] the target is T1, Replicative DNA helicase DnaB (Mycobacterium tuberculosis, UniProt P9WMR3).
T1 sequence (P9WMR3 whole entry): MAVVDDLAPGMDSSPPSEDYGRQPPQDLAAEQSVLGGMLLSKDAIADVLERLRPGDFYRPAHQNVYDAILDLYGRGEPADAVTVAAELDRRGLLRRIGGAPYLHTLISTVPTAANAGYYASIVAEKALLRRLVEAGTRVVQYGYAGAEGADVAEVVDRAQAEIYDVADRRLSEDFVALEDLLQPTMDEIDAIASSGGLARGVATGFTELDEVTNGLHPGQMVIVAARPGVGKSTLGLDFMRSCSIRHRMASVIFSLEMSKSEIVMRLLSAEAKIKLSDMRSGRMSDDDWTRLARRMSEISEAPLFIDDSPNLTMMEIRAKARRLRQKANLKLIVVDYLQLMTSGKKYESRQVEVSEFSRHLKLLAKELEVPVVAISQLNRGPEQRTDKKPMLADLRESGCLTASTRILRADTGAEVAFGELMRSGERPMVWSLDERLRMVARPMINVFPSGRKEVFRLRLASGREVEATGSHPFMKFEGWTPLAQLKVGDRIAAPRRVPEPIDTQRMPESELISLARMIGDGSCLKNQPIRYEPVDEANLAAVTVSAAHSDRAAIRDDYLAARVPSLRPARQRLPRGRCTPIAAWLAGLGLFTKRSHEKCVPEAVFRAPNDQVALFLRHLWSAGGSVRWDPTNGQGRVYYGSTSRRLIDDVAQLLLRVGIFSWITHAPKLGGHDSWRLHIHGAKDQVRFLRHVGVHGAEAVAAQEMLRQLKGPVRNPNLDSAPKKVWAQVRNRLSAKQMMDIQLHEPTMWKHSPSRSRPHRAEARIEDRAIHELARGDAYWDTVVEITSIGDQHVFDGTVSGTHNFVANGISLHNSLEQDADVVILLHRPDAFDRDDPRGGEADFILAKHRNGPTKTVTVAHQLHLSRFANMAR
Kind of test: DnaB intein splicing inhibitors, dose response, biochemical, cell-free fluorescence (AID 449749). Format: functional.

A further test addresses T2, Protein RecA (Mycobacterium tuberculosis, UniProt P9WHJ3).
T2 sequence (P9WHJ3 whole entry): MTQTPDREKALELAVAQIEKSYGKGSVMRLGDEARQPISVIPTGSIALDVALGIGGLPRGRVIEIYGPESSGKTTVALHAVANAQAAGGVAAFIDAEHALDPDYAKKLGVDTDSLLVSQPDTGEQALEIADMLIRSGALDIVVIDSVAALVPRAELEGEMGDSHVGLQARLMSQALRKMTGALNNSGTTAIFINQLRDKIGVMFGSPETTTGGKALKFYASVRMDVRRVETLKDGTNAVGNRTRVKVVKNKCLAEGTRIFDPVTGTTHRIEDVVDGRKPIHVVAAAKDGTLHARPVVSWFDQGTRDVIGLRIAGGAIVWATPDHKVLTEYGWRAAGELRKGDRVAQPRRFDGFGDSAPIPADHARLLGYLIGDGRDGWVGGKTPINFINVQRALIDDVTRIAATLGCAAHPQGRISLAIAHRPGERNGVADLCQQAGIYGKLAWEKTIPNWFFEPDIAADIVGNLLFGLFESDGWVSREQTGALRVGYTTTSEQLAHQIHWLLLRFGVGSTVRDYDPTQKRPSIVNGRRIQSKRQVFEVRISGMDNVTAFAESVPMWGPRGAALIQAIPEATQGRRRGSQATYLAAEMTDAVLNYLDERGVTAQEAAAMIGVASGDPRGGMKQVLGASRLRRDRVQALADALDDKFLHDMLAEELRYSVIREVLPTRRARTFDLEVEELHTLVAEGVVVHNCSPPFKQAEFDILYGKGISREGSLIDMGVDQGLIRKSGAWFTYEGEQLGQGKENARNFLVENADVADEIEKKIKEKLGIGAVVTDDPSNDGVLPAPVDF
Nature of the test: Fluorescence Cell-Free Homogeneous Dose Retest to Identify Inhibitors of RecA-Intein Splicing Activity. [Related pubchem assays (depositor defined):AID2097, AID2223, AID489010, AID492950]. The format is functional.

The subject of another test is T-cell. Nature of the test: inhibitors of CD8+ T cell–vesicle binding, dose response, mouse 2C CD8+ T cells, flow cytometry (AID 485284). Format: functional.
For another test, the target named is T3, Leucine aminopeptidase (Plasmodium falciparum 3D7, UniProt Q8IL11).
T3 sequence (Q8IL11 whole entry): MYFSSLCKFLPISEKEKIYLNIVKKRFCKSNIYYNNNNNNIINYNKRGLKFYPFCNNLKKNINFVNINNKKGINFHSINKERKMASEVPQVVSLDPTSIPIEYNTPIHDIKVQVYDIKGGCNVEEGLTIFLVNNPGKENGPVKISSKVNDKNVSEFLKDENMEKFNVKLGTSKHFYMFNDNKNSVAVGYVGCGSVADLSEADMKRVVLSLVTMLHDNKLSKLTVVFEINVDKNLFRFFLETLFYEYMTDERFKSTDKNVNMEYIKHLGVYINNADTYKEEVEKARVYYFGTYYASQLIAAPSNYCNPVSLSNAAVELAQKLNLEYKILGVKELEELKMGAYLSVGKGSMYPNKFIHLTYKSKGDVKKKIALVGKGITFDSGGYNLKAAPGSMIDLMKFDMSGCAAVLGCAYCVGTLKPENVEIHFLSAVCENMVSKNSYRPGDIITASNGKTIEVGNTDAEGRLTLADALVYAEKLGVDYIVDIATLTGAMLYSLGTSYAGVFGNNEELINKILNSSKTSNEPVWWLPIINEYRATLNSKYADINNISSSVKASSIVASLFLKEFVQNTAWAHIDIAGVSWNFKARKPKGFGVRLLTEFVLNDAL
Kind of test: P. falciparum M17LAP inhibitors, primary screen, biochemical, fluorogenic H-Leu-NHMec substrate, 1536-well (AID 1619). Format: functional.

Test [7] is described as follows: Intein inhibitors as potential Tuberculosis drugs, a cytotoxicity screen. [Related pubchem assays (depositor defined):AID2221, AID2223, AID434968, AID435010, AID449749, AID449750, AID489010]. The format is functional.
In another test the target is T4, Galanin receptor type 3 (Homo sapiens, UniProt O60755).
T4 sequence (O60755 whole entry): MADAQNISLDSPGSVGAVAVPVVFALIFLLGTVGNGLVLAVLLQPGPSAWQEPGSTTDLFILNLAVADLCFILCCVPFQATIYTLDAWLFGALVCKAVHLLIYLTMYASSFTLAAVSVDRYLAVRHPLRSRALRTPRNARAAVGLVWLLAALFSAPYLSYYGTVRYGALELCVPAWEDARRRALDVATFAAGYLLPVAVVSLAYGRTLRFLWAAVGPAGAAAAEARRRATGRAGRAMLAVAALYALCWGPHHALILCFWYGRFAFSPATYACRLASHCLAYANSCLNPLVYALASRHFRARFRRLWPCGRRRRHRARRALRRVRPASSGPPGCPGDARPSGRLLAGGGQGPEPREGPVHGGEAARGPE
Kind of test: Fluorescence-based cell-based primary high throughput dose response assay to identify antagonists of the Galanin Receptor 3 (GalR3). The format is functional.

Test [8] is described as follows: cells. The settings on record: HEK-CNG. Format: functional, cell-based.
For another test, the target named is T5, Bcl-2-related protein A1 (Mus musculus, UniProt Q07440).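 Further: confirmatory dose–response counterscreen on Bfl-1, used to check hits from a UBC13 polyubiquitin inhibitor campaign.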
T5 sequence (Q07440 whole entry): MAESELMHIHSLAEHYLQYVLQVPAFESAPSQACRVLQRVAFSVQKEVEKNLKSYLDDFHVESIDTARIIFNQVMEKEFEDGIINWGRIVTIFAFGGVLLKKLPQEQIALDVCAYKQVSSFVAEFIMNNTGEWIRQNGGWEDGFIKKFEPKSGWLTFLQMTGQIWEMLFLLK
The format is functional.

The target of test [9] is T6, Ubiquitin-conjugating enzyme E2 N (Homo sapiens, UniProt P61088).
T6 sequence (P61088 whole entry): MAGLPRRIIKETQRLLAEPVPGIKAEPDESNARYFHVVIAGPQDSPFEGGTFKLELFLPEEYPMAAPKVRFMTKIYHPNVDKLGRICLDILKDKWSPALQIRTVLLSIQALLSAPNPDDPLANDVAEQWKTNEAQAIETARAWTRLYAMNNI
Format: functional.

Test [10] deals with T6, Ubiquitin-conjugating enzyme E2 N. The format is functional. This is another data set of the same source.
A short description of test [11]: HepG2 cell cytotoxicity, dose response, cytotoxicity control, ATP luminescence, cherry-pick, set 6 (AID 1053125). The format is functional, cell-based.
A short description of test [12]: cells. The settings on record: A549.
Test [13] in a line: cells. Conditions: HEK293.
Test [14] addresses T7, Type-1 angiotensin II receptor (Homo sapiens, UniProt P30556).
T7 sequence (P30556 whole entry): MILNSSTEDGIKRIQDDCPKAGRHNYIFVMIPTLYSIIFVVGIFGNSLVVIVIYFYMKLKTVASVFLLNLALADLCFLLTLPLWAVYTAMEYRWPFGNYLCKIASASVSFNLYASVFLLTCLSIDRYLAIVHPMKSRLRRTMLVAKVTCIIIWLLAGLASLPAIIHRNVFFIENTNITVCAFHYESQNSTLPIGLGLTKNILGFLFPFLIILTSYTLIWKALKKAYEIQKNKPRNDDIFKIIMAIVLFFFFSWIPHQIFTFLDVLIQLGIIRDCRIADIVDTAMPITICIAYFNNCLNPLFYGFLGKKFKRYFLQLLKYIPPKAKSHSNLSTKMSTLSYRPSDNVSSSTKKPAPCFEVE
Kind of test: AT1 receptor agonists, dose response, selectivity assay for APJ receptor agonist project, cell-based, uHTS hits (AID 488865).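 Further: beta-arrestin recruitment to AT1 measured by enzyme fragment complementation luminescence.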 Format: functional.

Test [15] addresses T8, DNA repair and recombination protein RAD54-like (Homo sapiens, UniProt Q92698).
T8 sequence (Q92698 whole entry): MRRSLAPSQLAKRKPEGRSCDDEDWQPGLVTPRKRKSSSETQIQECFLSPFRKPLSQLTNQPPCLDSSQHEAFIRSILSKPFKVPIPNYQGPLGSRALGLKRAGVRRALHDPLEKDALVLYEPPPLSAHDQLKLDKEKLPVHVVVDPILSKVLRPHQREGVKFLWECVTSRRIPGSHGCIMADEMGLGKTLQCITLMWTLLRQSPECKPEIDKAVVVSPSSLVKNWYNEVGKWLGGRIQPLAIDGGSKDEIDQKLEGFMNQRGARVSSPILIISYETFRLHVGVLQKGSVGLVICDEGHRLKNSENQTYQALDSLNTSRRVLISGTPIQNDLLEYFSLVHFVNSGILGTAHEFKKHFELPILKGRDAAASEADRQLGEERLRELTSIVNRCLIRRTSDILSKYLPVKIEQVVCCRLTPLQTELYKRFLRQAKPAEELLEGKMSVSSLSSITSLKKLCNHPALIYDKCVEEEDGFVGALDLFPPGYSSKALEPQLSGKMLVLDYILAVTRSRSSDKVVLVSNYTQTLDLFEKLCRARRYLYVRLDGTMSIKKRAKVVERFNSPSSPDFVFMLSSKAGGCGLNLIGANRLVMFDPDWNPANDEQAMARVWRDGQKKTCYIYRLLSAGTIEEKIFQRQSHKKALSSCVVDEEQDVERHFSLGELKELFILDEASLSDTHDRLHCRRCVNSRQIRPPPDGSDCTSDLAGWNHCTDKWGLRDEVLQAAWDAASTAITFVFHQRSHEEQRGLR
Nature of the test: inhibitors of human RAD54 branch migration, confirmation, biochemical, fluorescence, cherry-picked samples, dose series (AID 651657). Format: functional.

Another test has as its target Kallikrein-7 (Homo sapiens, UniProt P49862). Kind of test: Fluorescence Intensity-based biochemical primary high throughput dose response assay to identify activators of kallikrein-7 (K7) zymogen.
For the next test, the system named is Vibrio harveyi. Nature of the test: inhibitors of AI-2 quorum sensing in V. harveyi, dose response, LuxS, LuxPQ, dry powder, set 2 (AID 493072). Format: functional, organism-based.
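Wherever CC50 is given: cells exposed to compound for 72 hours before luminescence readout.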

Chain of Kallikrein-7 (P49862 whole entry): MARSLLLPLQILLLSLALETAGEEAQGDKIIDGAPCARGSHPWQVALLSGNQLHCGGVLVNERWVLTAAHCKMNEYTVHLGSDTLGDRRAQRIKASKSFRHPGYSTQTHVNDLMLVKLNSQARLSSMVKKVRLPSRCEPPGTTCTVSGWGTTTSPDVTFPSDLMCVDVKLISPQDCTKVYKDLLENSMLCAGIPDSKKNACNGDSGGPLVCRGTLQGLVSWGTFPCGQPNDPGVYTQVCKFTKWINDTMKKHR
Chain of Nucleotide-binding oligomerization domain-containing protein 2 (Q9HC29 whole entry, the tested form may be a part): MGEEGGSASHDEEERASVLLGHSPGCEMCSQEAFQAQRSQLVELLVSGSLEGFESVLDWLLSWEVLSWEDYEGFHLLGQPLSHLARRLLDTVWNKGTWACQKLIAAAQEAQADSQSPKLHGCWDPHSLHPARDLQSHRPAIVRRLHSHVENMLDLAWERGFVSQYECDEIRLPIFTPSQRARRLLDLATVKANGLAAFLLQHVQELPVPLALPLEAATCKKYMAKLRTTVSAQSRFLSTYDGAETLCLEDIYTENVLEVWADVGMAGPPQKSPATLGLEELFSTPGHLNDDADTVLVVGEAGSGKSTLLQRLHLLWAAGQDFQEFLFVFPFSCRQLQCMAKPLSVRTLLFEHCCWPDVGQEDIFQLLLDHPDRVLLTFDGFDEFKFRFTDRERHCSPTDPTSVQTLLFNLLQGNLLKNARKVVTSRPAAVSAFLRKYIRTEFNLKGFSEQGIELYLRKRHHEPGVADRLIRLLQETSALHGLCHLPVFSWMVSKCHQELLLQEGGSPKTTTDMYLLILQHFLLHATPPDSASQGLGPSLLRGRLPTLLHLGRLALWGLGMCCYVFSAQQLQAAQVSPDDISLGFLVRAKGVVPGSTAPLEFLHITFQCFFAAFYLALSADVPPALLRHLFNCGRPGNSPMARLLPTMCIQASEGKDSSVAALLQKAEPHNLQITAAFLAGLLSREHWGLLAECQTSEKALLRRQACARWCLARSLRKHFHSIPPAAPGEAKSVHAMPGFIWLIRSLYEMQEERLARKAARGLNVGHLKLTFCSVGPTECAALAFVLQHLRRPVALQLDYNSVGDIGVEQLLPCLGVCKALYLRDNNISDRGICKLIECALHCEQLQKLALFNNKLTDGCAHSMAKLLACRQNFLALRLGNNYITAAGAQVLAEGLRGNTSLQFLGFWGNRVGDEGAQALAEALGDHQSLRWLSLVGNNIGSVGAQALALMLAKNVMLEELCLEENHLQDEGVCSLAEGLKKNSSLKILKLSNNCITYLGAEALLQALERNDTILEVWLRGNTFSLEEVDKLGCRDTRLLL

Consider `CCc1nc(SCC(=O)N2CCN(c3ccccc3)CC2)c2oc3ccccc3c2n1`, for which the values for the half-maximal effective concentration (EC50) (in the test with HEK293 [1]; in test [3]; at Protein RecA) were 4.73 µM (active), > 20 µM (inactive) and > 380 µM (inactive), respectively. Further, the results for the IC50 with HEK293 [2], with HEK293 [4] and with HEK293 [5] were 17.7 µM (active), 5.63 µM (inactive) and > 20 µM (inactive), respectively. Further, the half-maximal activity concentration (AC50) in test [6] was 2 µM (active).

For the molecule `CC1CCCCC1NC(=O)COC(=O)c1ccc2ncsc2c1` (centres undefined), in the test on T-cell, the EC50 was 48.4 µM (inactive).

On to `N#CC(C#N)C(c1ccsc1)c1c(-c2ccccc2)n[nH]c1O` (centres undefined), for which the figures for the IC50 on Leucine aminopeptidase and at Galanin receptor type 3 were 36.7 µM (active) and > 29.9 µM (inactive), respectively. Besides, the half-maximal cytotoxic concentration (CC50) in [7] is > 40 µM (active). Moreover, in [6], the AC50 is 2.85 µM (active). The results for the concentration giving a half-maximal response (EC50) on Protein RecA and in the test “cells [8]” were 0.468 µM (active) and 17.4 µM (inactive), respectively.

With `CC(=O)NC(=S)NNC(=O)c1ccc(Br)cc1`, the IC50 is > 20 µM (inactive) at Bcl-2-related protein A1, 14.9 µM (active) in test [9] and 17 µM (active) in test [10]. The AC50 in test [11] was > 52 µM (inactive); in the test “cells [12]” it was 46.3 µM (active); in the test “cells [13]”, > 52 µM (inactive).

Take `COc1cccc2sc3cc(NCC[C@@H]4CCCN4C)ccc3c(=O)c12`: the EC50 in test [14] is > 100 µM (inactive); on Kallikrein-7 it was > 69.5 µM (inactive). Moreover, the AC50 in test [15] is 9.49 µM (active).

Regarding `Cc1cccc(NC(=O)c2ccc(Oc3ccccc3)cc2)n1`, in the test with Vibrio harveyi, the AC50 was 15.2 µM (active).
